According to the CheMixHub viscosity set:

Assay: xn = mol fraction of the nth substance listed

CC(C)(C)O + CC#N
viscosity [mPa·s]
Settings | 298.15 K | 303.15 K | 308.15 K | 313.15 K
101 kPa, x1 = 0.0566 | 0.3785 | 0.3701 | 0.3589 | –
101 kPa, x1 = 0.1198 | 0.4021 | 0.3935 | 0.3794 | –
101 kPa, x1 = 0.1887 | 0.4346 | 0.4229 | 0.4056 | –
101 kPa, x1 = 0.2685 | 0.4818 | 0.461 | 0.4406 | –
101 kPa, x1 = 0.3568 | 0.5555 | 0.5226 | 0.4902 | –
101 kPa, x1 = 0.4511 | 0.6735 | 0.6105 | 0.5659 | –
101 kPa, x1 = 0.5606 | 0.9097 | 0.8128 | 0.7495 | –
101 kPa, x1 = 0.6858 | 1.341 | 1.18 | 1.058 | –
101 kPa, x1 = 0.831 | 2.213 | 1.884 | 1.63 | –
101.3 kPa, x2 = 0.1675 | 1.925 | 1.606 | 1.359 | 1.158
101.3 kPa, x2 = 0.3117 | 1.187 | 1.035 | 0.909 | 0.805
101.3 kPa, x2 = 0.4368 | 0.863 | 0.756 | 0.68 | 0.615
101.3 kPa, x2 = 0.5471 | 0.66 | 0.604 | 0.553 | 0.509
101.3 kPa, x2 = 0.6446 | 0.552 | 0.511 | 0.474 | 0.442
101.3 kPa, x2 = 0.73 | 0.476 | 0.446 | 0.418 | 0.394
101.3 kPa, x2 = 0.8084 | 0.428 | 0.404 | 0.382 | 0.362
101.3 kPa, x2 = 0.8784 | 0.394 | 0.375 | 0.357 | 0.34
101.3 kPa, x2 = 0.9421 | 0.376 | 0.359 | 0.342 | 0.33

CCCC(=O)OC + CCCCCCCC
101.33 kPa
Settings | viscosity [mPa·s]
293.15 K, x1 = 0.0893 | 0.53
293.15 K, x1 = 0.137 | 0.525
293.15 K, x1 = 0.2169 | 0.519
293.15 K, x1 = 0.3101 | 0.514
293.15 K, x1 = 0.3906 | 0.514
293.15 K, x1 = 0.5062 | 0.516
293.15 K, x1 = 0.6094 | 0.522
293.15 K, x1 = 0.6977 | 0.529
293.15 K, x1 = 0.795 | 0.54
293.15 K, x1 = 0.8572 | 0.55
293.15 K, x1 = 0.9222 | 0.562
303.15 K, x1 = 0.1392 | 0.468
303.15 K, x1 = 0.2271 | 0.462
303.15 K, x1 = 0.315 | 0.459
303.15 K, x1 = 0.4073 | 0.458
303.15 K, x1 = 0.5146 | 0.459
303.15 K, x1 = 0.607 | 0.464
303.15 K, x1 = 0.6957 | 0.47
303.15 K, x1 = 0.7994 | 0.48
303.15 K, x1 = 0.8631 | 0.488
303.15 K, x1 = 0.9198 | 0.497
313.15 K, x1 = 0.07444 | 0.425
313.15 K, x1 = 0.1338 | 0.42
313.15 K, x1 = 0.2249 | 0.416
313.15 K, x1 = 0.3123 | 0.413
313.15 K, x1 = 0.3936 | 0.411
313.15 K, x1 = 0.4968 | 0.413
313.15 K, x1 = 0.6049 | 0.417
313.15 K, x1 = 0.6981 | 0.423
313.15 K, x1 = 0.8007 | 0.432
313.15 K, x1 = 0.866 | 0.439
313.15 K, x1 = 0.9319 | 0.448

Nc1ccccc1 + CO
298.15 K, 101 kPa
Settings | viscosity [mPa·s]
x1 = 0.0473 | 0.5608
x1 = 0.1001 | 0.5768
x1 = 0.1604 | 0.6103
x1 = 0.2292 | 0.6583
x1 = 0.3082 | 0.7229
x1 = 0.4007 | 0.8404
x1 = 0.5096 | 1.023
x1 = 0.6406 | 1.322
x1 = 0.8005 | 1.867
